From patent publication US20240018154A1, “NEW INDAZOLE DERIVATIVES” (Hoffmann-La Roche Inc., priority 2020, published 2024) come the findings set out here.

pIC50: −log10 of the molar value. Counter-ions that a name gives are not always drawn.

For the test, the target named is T1, EGFR LRCS (BaF3-LRCS cell line) (Homo sapiens, UniProt P00533, C797S/L858R).
T1 construct: host or cells: BaF3 (BaF3-LRCS engineered line, kept under puromycin)
T1 sequence (P00533 25-1210 C797S/L858R): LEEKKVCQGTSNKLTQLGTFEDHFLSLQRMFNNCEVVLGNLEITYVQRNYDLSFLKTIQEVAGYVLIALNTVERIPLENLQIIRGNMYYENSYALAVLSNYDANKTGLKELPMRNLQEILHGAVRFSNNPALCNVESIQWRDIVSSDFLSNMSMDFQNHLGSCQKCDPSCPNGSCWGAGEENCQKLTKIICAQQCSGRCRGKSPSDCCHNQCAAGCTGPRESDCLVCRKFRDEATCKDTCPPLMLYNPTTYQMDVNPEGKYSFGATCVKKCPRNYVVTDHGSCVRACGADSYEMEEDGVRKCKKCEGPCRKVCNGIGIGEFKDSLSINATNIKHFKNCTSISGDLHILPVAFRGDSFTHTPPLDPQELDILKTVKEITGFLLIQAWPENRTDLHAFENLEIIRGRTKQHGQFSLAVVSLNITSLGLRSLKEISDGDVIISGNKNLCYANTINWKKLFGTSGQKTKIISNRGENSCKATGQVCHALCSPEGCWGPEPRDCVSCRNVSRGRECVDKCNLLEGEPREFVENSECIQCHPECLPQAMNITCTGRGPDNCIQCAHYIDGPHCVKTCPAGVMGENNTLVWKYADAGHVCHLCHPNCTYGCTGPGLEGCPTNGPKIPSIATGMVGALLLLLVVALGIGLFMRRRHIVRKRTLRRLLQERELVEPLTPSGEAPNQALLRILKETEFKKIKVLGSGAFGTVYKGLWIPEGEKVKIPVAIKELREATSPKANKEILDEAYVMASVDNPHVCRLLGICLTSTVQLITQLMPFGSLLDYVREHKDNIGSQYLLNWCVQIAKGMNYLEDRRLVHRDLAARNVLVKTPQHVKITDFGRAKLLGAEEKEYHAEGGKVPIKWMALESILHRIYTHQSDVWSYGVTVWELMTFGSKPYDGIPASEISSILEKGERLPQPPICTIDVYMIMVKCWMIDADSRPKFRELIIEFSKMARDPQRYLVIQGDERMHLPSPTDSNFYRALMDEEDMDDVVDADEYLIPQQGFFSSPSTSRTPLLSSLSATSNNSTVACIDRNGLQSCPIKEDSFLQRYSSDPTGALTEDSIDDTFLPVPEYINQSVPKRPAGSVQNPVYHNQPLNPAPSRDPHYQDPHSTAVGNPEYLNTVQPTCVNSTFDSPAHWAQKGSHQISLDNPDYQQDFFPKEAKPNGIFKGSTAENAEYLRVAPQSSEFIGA
Briefly: HTRF Phospho EGFR LRCS assay (cellular). The note with it: BaF3-LRCS cells, 4 hours incubation with compound, Phospho-EGFR HTRF readout. In kind it is cell-based. The procedure: HTRF Phospho EGFR LRCS Assay (Cellular)
BaF3-LRCS cell line were obtained from Crownbio (San Diego, CA, USA). Cells were maintained at 37° C., 5% CO2 in RPMI ATCC (Gibco 31870)+2 mM Glutamine+0.5 μg/ml Puromycin supplemented with 10% fetal bovine serum (FBS) (Gibco).
Cells are transferred as above to Greiner Bio-One, Nr. 784-08 micro-titerplate at 20000 cells/well in 12.5 μl of growth medium/well after the plates had been pre-filled with 12.5 nl of DMSO solutions of the to be tested compounds (in dose response) or DMSO only. After spinning the plates at 300×g for 30 seconds the cells were incubated for 4 hours at 37 C, 5% CO2, 95% humidity. The cells were lysed by adding to the compound mix 4 μl/well of the supplemented lysis buffer (Cis-bio, Phospho-EGFR HTRF kit, 64EG1PEH), followed by incubation for 30 min at room temperature with shaking (400 rpm). The plates were then frozen and stored overnight at −80° C. On the next day and after thawing the plates, 4 μl of a mixture of anti-Phospho-EGFR Cryptate and of anti-Phospho-EGFR-d2 antibody solutions prepared in the supplied detection buffer was added to each well. The lidded plates were then incubated for 4 h at room temperature before reading the fluorescence emission at 616 and 665 nm using an Envision reader (Perkin Elmer). Data was analyzed in similar fashion as above using the normalized ratio of the 665 to 616 signals multiplied by 10000.
A word on the pIC50: it is the negative decadic logarithm of the IC50, by convention in mol/L. Turning to `Cc1c(-c2ccc(OCCN3CCOCC3)cc2)cc(C(F)F)c2cn(C(C(=O)Nc3nccs3)c3ncn4c3C[C@@H](F)C4)nc12` (stereo partly drawn) [Example 18, 2-[4-(Difluoromethyl)-7-methyl-6-[4-(2-morpholinoethoxy)phenyl]indazol-2-yl]-2-[(6R)-6-fluoro-6,7-dihydro-5H-pyrrolo[1,2-c]imidazol-1-yl]-N-thiazol-2-yl-acetamide], the pIC50 is 7.55.

As for `Cc1c(-c2ccc(OCCN3CCC(O)CC3)cc2)cc(C(F)F)c2cn(C(C(=O)Nc3nccs3)c3ncn4c3C[C@@H](F)C4)nc12` (stereo partly drawn) [Example 10, 2-[4-(Difluoromethyl)-6-[4-[2-(4-hydroxy-1-piperidyl)ethoxy]phenyl]-7-methyl-indazol-2-yl]-2-[(6R)-6-fluoro-6,7-dihydro-5H-pyrrolo[1,2-c]imidazol-1-yl]-N-thiazol-2-yl-acetamide], the pIC50 is 7.77. Consider `Cc1c(-c2ccc(CN(C)C3CCC(O)CC3)cc2)cc(C(F)F)c2cn(C(C(=O)Nc3nccs3)c3ncn4c3C[C@@H](F)C4)nc12` (stereo partly drawn) [Example 28, 2-[4-(Difluoromethyl)-6-[4-[[(4-hydroxycyclohexyl)-methyl-amino]methyl]phenyl]-7-methyl-indazol-2-yl]-2-[(6R)-6-fluoro-6,7-dihydro-5H-pyrrolo[1,2-c]imidazol-1-yl]-N-thiazol-2-yl-acetamide], for which the pIC50 was 7.47. With `Cc1c(-c2ccc(CCN3CCC(O)CC3)cc2)cc(C(F)F)c2cn(C(C(=O)Nc3nccs3)c3ncn4c3C[C@@H](F)C4)nc12` (stereo partly drawn) [Example 27, 2-[4-(Difluoromethyl)-6-[4-[2-(4-hydroxy-1-piperidyl)ethyl]phenyl]-7-methyl-indazol-2-yl]-2-[(6R)-6-fluoro-6,7-dihydro-5H-pyrrolo[1,2-c]imidazol-1-yl]-N-thiazol-2-yl-acetamide] the figure was 7.55; with `Cc1c(-c2ccc(N3CCC(C)(O)CC3)cc2)cc(C(F)F)c2cn(C(C(=O)Nc3nccs3)c3ncn4c3C[C@@H](F)C4)nc12` (stereo partly drawn) [Example 24, 2-[4-(Difluoromethyl)-6-[4-(4-hydroxy-4-methyl-1-piperidyl)phenyl]-7-methyl-indazol-2-yl]-2-[(6R)-6-fluoro-6,7-dihydro-5H-pyrrolo[1,2-c]imidazol-1-yl]-N-thiazol-2-yl-acetamide], 7.60. With `CNCCc1ccc(-c2cc(C(F)F)c3cn(C(C(=O)Nc4nccs4)c4ncn5c4C[C@@H](F)C5)nc3c2C)cc1` (stereo partly drawn) [Example 3, 2-[4-(Difluoromethyl)-7-methyl-6-[4-[2-(methylamino)ethyl]phenyl]indazol-2-yl]-2-[(6R)-6-fluoro-6,7-dihydro-5H-pyrrolo[1,2-c]imidazol-1-yl]-N-thiazol-2-yl-acetamide Hydrochloride], the pIC50 was 7.74. As for `Cc1c(-c2ccc(OCCN3CCC(CO)CC3)cc2)cc(C(F)F)c2cn(C(C(=O)Nc3nccs3)c3ncn4c3C[C@@H](F)C4)nc12` (stereo partly drawn) [Example 5, 2-[4-(Difluoromethyl)-6-[4-[2-[4-(hydroxymethyl)-1-piperidyl]ethoxy]phenyl]-7-methyl-indazol-2-yl]-2-[(6R)-6-fluoro-6,7-dihydro-5H-pyrrolo[1,2-c]imidazol-1-yl]-N-thiazol-2-yl-acetamide], the figure is 7.72. Consider `Cc1c(-c2ccc(N3CCC(S(C)(=O)=O)CC3)cc2)cc(C(F)F)c2cn(C(C(=O)Nc3nccs3)c3ncn4c3C[C@@H](F)C4)nc12` (stereo partly drawn) [Example 16, 2-[4-(Difluoromethyl)-7-methyl-6-[4-(4-methylsulfonyl-1-piperidyl)phenyl]indazol-2-yl]-2-[(6R)-6-fluoro-6,7-dihydro-5H-pyrrolo[1,2-c]imidazol-1-yl]-N-thiazol-2-yl-acetamide], for which the pIC50 was 7.80. As for `Cc1c(-c2ccc(C3CC(CN4CCC(O)CC4)C3)cc2)cc(C(F)F)c2cn(C(C(=O)Nc3nccs3)c3ncn4c3C[C@@H](F)C4)nc12` (stereo partly drawn) [Example 17, 2-[4-(Difluoromethyl)-6-[4-[3-[(4-hydroxy-1-piperidyl)methyl]cyclobutyl]phenyl]-7-methyl-indazol-2-yl]-2-[(6R)-6-fluoro-6,7-dihydro-5H-pyrrolo[1,2-c]imidazol-1-yl]-N-thiazol-2-yl-acetamide], the pIC50 is 7.52. On to `Cc1c(-c2ccc(N3CCN4CCC3C4)cc2)cc(C(F)F)c2cn(C(C(=O)Nc3nccs3)c3ncn4c3C[C@@H](F)C4)nc12` (stereo partly drawn) [Example 13, 2-[6-[4-(1,4-Diazabicyclo[3.2.1]octan-4-yl)phenyl]-4-(difluoromethyl)-7-methyl-indazol-2-yl]-2-[(6R)-6-fluoro-6,7-dihydro-5H-pyrrolo[1,2-c]imidazol-1-yl]-N-thiazol-2-yl-acetamide], for which the pIC50 was 7.77.
